In patent publication US6710090B2, “Inhibitory or blocking agents of molecular generating and/or inducing functions” (priority 1994, dated 2004):

Tests used:
[1] = target: T1, thrombin (Homo sapiens, UniProt P00734); test: Composition of amino acids in thrombin; assay type: biochemical; design: 1 ml of human thrombin before and after treatment with Yoshixol; conditions: did not exist before treatment; Yoshixol 4 μl
Procedure: Changes in composition of amino acids were analyzed by use of 1 ml of human blood serum, 1 ml of human fibrinogen (concentration of 160 mg/dl), 1 ml of human thrombin before and after treatment with Yoshixol (4 μl). The total amino acids in the human blood serum which was treated with Yoshixol decreased by 41%. And, ratio of each composition was altered after the treatment so that as an example the concentration of phosphoserine increased about 20 times which level was from 7.2 picomole to 164.8 picomole.

[2] = target: T2, vasopressin (Homo sapiens, UniProt P01185); test: Physiological function of vasopressin treated with Yoshixol, blood pressure; assay type: in vivo; conditions: rabbit, intravenous vasopressin 100 ng/Kg treated with Yoshixol 4 μl; untreated vasopressin 15-25 mmHg
T2 construct: Effect on Physiological Function of Vasopressin and Insulin as Peptides; purchased Sigma Co. Saint Louis, Mo., USA
Procedure: Each vasopressin and insulin has a physiological effect such as a rise of blood pressure and a fall of sugar level in blood respectively. An effect of Yoshixol on these physiological functions was investigated and compared by injection of each hormone without or with treatment with Yoshixol in rabbit in vivo. When vasopressin (100 ng/Kg, Sigma Co. Saint Louis, Mo., USA) without treatment with Yoshixol was injected intravenously, blood pressure increased by 15-25 mmHg so that this increased level was maintained for about 25 minutes. But, vasopressin (100 ng/Kg) treated with Yoshixol (4 μl) caused a increase in blood pressure of only about 5 mmHg (referred FIG. 6).

[3] = test system: anti-A blood serum, anti-B blood serum; test: Function of serum antibodies for ABO blood types; assay type: biochemical, human
Procedure: It is also known that antibody has a structure of Y shape which consists of 2 pairs of light chain and heavy chain in generally, and that the fundamental structure is maintained by S—S bond. Serum antibody reaction of ABO blood types is important historically to understand various kinds of antigen-antibody reactions. In this invention, effect of Yoshixol (4 μl) on the standard judgment of ABO blood types was investigated by using human blood of A type, B type and O type (400 μl, respectively).

[4] = test system: single strand DNA, double strand DNA and mRNA of E. coli bacteriophage; test: Antiviral effect, E. coli bacteriophage structure and infection, electron microscopes; assay type: cell-based
Procedure: In order to investigate the effect on virus, changes in structure of single strand DNA, double strand DNA and mRNA of E. coli bacteriophage (1 ml of 1 mol solution), which were prepared as non-treated sample and treated sample with 4 μl of Yoshixol, were observed by scanning and transmission electron microscopes. In addition, according a general bacteriological technique, changes in proliferation and in morphological aspect (by scanning and transmission electron microscopes) of E. Coli, which was infected by single strand DNA, double strand DNA or mRNA, were investigated before and after treatment of each phage with Yoshixol. As treated samples, 4 μl of Yoshixol was added in 1 ml of each phage solution which concentration was adjusted to 1 mol. […] In addition, an effect of Yoshixol on chicken myeloblastosis virus (AMV) reverse transcriptase (Gibco Co. Getesburg, Md., USA) was investigated by measuring amount of cDNA synthesis, which was amplified by PCR of RNA(5 μg) and AMV reverse transcriptase (25 units). As treated group, 0.01 μl of Yoshixol was added to 25 units sample of the AMV reverse transcriptase. Thus, the expected production of cDNA was obtained in the non-treated group, however, the amount of cDNA production decreased to 10% of the expected one when Yoshixol was treated (referred FIG. 15).

[5] = test system: E. coli strain no. W3110; test: Anti-microbacterial effect on E. Coli; assay type: cell-based; conditions: for colony formation unit (CFU): 2 μl per 1 ml of culture medium
[6] = test system: HeLa cells; test: Anti-cancer effect, cultured HeLa cells; assay type: cell-based; conditions: compared with keratinocytes treated with Yoshixol
[7] = target: T1, thrombin; test: Thrombin treated with Yoshixol added in fibrinogen, thromboelastgram; assay type: biochemical; design: thrombin (Behlinger Manheim-Yamanouchi Co.) was investigated by electrophoresis; purchased Behlinger Manheim-Yamanouchi Co
Procedure: (§1) Effect of Yoshixol (4 μl) on human blood coagulation and fibrin formation (thrombin was added to fibrinogen) were investigated by thromboelastgram (Hellige GMBH, West Germany). Also, a magnitude of fibrin network which is formed at human blood coagulation was investigated by a scanning electron microscopy. Coagulation of human blood without treatment with Yoshixol was started within 1-2 min so that maximum level of coagulation occurred approximately within 15 min, followed by gradual decrease due to activation of fibrinolytic system. Immediately after thrombin is added on fibrinogen, viscosity of the sample started to increase, reached to a maximum level within 5-6 minutes. This maximum level was maintained for periods of 6 hours which was observed (referred FIG. 3a). However, when Yoshixol (4 μl) was added in 0.4 ml of whole blood or fibrinogen (160 mg/dl), onset time of blood coagulation and fibrin formation was delayed to 4-5 minutes and maximum aggregation time was occurred within 6-8 minutes. Maximum level of coagulation after the treatment was inhibited by 90% of control which level was maintained over 6 hours of investigation (referred FIG. 3b).

[8] = test system: human blood coagulation and fibrin formation; test: Human blood coagulation and fibrin formation, thromboelastgram and scanning electron microscopy; assay type: biochemical
Procedure: as §1

[9] = beagles, oral 10 μl per body weight
[10] = beagles, oral 10 μl per body weight, 1 week

**Q.** For C=C1CC(C)(C)C=CC1=O [Yoshixol, 4,4-dimethyl-6-methylene-2-cyclohexen-1-one], which “glutamic acid, taurine, methionine and aminoisobutylic acid in thrombin sample” value [1] is on record?
**A.** Its value is “produced newly”.

**Q.** What about the “increase in blood pressure” value [2] of the same molecule?
**A.** The value was “about 5 mmHg”.

**Q.** And the “primary structure of antiserums for ABO blood types (electrophoretic analysis)” value ([3]; after treatment of Yoshixol)?
**A.** Its value is “any change in primary structure of antiserums did not find”.

**Q.** What about the “blood aggregation in judgment of ABO blood type” value ([3]; antiserum treated with Yoshixol 4 μl, human blood A, B, O type 400 μl) of the same molecule?
**A.** The value was “any aggregation did not occur”.

**Q.** And the “helical and multi-dimensional structure of single strand DNA, double strand DNA and mRNA” value ([4]; 4 μl of Yoshixol in 1 ml phage solution (1 mol), electron microscopes)?
**A.** The value was “became a simple structure”.

**Q.** And the “adhesion of the phage on the bacterial surface and/or intrabacterial existence” value ([4]; E. coli infected with phage treated with Yoshixol)?
**A.** The value was “not in the treated group”.

**Q.** And the albumin/globulin ratio [9]?
**A.** The albumin/globulin ratio was “elevated 3 days after administration”.

**Q.** And the creatinine phosphokinase [9]?
**A.** Its creatinine phosphokinase is “fell”.

**Q.** What about the “enzymes such as γ-GPT, GOT, GPT” value [9] of the same molecule?
**A.** The value was “also fell”.

**Q.** And the albumin level [10]?
**A.** Its albumin level is “did not change”.

**Q.** And the “changes in concentration of total bilirubin, GOT, GPT, TTT, ZTT, cholinesterase, serum iron, potassium, sodium, chloride, inorganic phosphorus and calcium” value [10]?
**A.** The value was “did not found”.

**Q.** What about the “difference in concentration of total cholesterol and triglyceride between groups” value [10] of the same molecule?
**A.** Its value is “did not occur”.

**Q.** What about the “level of uric acid” value (beagles, oral 10 μl per body weight, during the administration) of the same molecule?
**A.** The value was “maintained at lower level”.

**Q.** What about the “total proteins in blood serum” value (beagles, oral 10 μl per body weight, recovery 1 week after stop) of the same molecule?
**A.** The value was “increased 3 days after administration”.

**Q.** And the “levels of nonproteins nitrogen and creatinine in the serum” value (beagles, oral 10 μl per body weight, since 1 day after administration)?
**A.** The value was 70-80 % of the control.

**Q.** What about the “TTT and ZTT” value (dog, in vivo, po) of the same molecule?
**A.** Its value is “did not show abnormal values”.

**Q.** What about the “changes in numbers of red blood cells, white blood cells and platelets” value (dog, in vivo, po) of the same molecule?
**A.** Its value is “did not found”.

**Q.** What about the “colony formation unit (CFU)” value ([5]; after 1 hour cultured, initial 10^8) of the same molecule?
**A.** The value was “zero”.

**Q.** And the “colony formation unit (CFU)” value ([5]; after 24 hours, initial 10^8, control 10^10)?
**A.** Its value is “zero”.

**Q.** And the “proliferation with evaporating component of Yoshixol” value ([5]; 50 μl in the whole space of the schale, indirect contact, 24 hours, 37° C.)?
**A.** Its value is “did not occur”.

**Q.** And the “histological aspect of cell death, scanning electron microscopy” value ([5]; final stage after Yoshixol)?
**A.** Its value is “destroyed resulting in small particles”.

**Q.** What about the “structure between cells and cellular aspect” value [6] of the same molecule?
**A.** Its value is “observations similar to the above were found”.

**Q.** And the “aggregation reaction on thromboelastgram” value [7]?
**A.** The value was “any of aggregation reaction was not be found”.

**Q.** What about the maximum aggregation time ([8]; Yoshixol 4 μl in 0.4 ml whole blood or fibrinogen (160 mg/dl)) of the same molecule?
**A.** Its maximum aggregation time is 6 to 8 min.

**Q.** And the “onset time of blood coagulation and fibrin formation” value ([8]; Yoshixol 4 μl in 0.4 ml whole blood or fibrinogen (160 mg/dl), untreated blood 1-2 min)?
**A.** The value was 4 to 5 min.

**Q.** What about the “inhibition of maximum level of coagulation” value ([8]; Yoshixol 4 μl in 0.4 ml, level maintained over 6 hours) of the same molecule?
**A.** The value was 90 % of control.

**Q.** And the “rouleaux formation of erythrocyte and formation of fibrin net” value ([8]; morphological investigation, scanning electron microscopy)?
**A.** The value was “did not occur”.
